Starred links: 1 amine or outer side, 2 acyl side, 3 side chain; linkers in the order of their positions; H or OH if unused. Positions of bridges follow the written chain, without caps; N, C: chain ends. Non-standard residues stand in square brackets, D forms with d. Residues, ends and D or L forms follow the SMILES beside them. *: point of attachment. Bip(4'-NHCO-C6H4-3-CH2COOH) = N[C@@H](Cc1ccc(-c2ccc(NC(=O)c3cccc(CC(=O)O)c3)cc2)cc1)C(=O)O; Bip(4'-NHBz) = N[C@@H](Cc1ccc(-c2ccc(NC(=O)c3ccccc3)cc2)cc1)C(=O)O; Bip(4'-NH) = O=C([C@H](Cc1ccc(-c2ccc(N[*:3])cc2)cc1)N[*:1])[*:2]; dArg(ω-Bn(3-CH2OH)) = N=C(NCCC[C@@H](N)C(=O)O)NCc1cccc(CO)c1; Indazole3carbonyl(1-CH2COOH) = O=C(O)Cn1nc(C(=O)*)c2ccccc21; Bip(4'-COOH) = N[C@@H](Cc1ccc(-c2ccc(C(=O)O)cc2)cc1)C(=O)O; X28 = N=C(NCCC[C@@H](N[*:1])C(=O)[*:2])NCc1ccc(CN)cc1; X7 = N=C(NCCC[C@@H](N[*:1])C(=O)[*:2])NCc1ccc2occc2c1; Ala(morpholin-4-yl) = N[C@@H](CN1CCOCC1)C(=O)O; Benzoyl(3-OCH2COOH) = O=C(O)COc1cccc(C(=O)*)c1; Benzoyl(4-OCH2COOH) = O=C(O)COc1ccc(C(=O)*)cc1; Bip = N[C@@H](Cc1ccc(-c2ccccc2)cc1)C(=O)O; 2Pal = N[C@@H](Cc1ccccn1)C(=O)O; Cha = N[C@@H](CC1CCCCC1)C(=O)O; X62 = COC(=O)Cc1cccc(C(=O)*)c1; Chg = N[C@H](C(=O)O)C1CCCCC1; Tle = CC(C)(C)[C@H](N)C(=O)O; Sar = CNCC(=O)O

TNFα, sequence (P01375 77-233 limits assumed): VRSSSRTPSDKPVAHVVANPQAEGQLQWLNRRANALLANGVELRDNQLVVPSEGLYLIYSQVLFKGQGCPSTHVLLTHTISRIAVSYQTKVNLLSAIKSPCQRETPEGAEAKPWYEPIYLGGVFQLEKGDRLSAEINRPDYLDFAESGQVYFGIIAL

The first assay addresses TNFα (Homo sapiens, UniProt P01375). The assay can be described thus: TNF-Induced HEK-Blue Assay. In kind it is cell-based.
Settings: not given
The term IC50 denotes the point on the concentration scale where inhibition reaches its midpoint. In turn, `CC[C@H](C)[C@@H]1NC(=O)[C@@H](CCCNC(=N)N)NC(=O)[C@H](CC(=O)O)NC(=O)[C@H](Cc2cnc[nH]2)NC(=O)CN(C)C(=O)[C@H](Cc2ccc(-c3ccc(NC(=O)c4ccccc4)cc3)cc2)NC(=O)[C@H](Cc2ccc(-c3ccccc3)cc2)NC(=O)[C@H](CC2CCCCC2)NC(=O)CSC[C@@H](C(=O)NCC(N)=O)NC(=O)[C@H](CC(C)C)NC(=O)[C@H](Cc2cnc[nH]2)NC(=O)[C@H](C2CCCCC2)NC(=O)[C@@H]2CCCN2C1=O` [Example 490] ({CH2CO}-[Cha][Bip][Bip(4'-NHBz)][Sar]HD[dR]IP[Chg]HLCG-NH2; thioether N-13) showed a half-inhibitory concentration (IC50) of 50 to 200 nM. As to `CC(C)C[C@@H]1NC(=O)[C@H](Cc2cnc[nH]2)NC(=O)[C@H](C(C)C)NC(=O)[C@@H]2CCCN2C(=O)[C@H](C(C)C)NC(=O)[C@@H](CCCNC(=N)N)NC(=O)[C@H](CC(=O)O)NC(=O)[C@H](Cc2ccccc2)NC(=O)CN(C)C(=O)[C@H](Cc2ccc(-c3ccc(NC(=O)c4ccccc4)cc3)cc2)NC(=O)[C@H](Cc2ccc(-c3ccccc3)cc2)NC(=O)[C@H](CN2CCOCC2)NC(=O)CSC[C@@H](C(=O)NCC(N)=O)NC1=O` [Example 491] ({CH2CO}-[Ala(morpholin-4-yl)][Bip][Bip(4'-NHBz)][Sar]FD[dR]VPVHLCG-NH2; thioether N-13), the IC50 is 50 to 200 nM. On to `CC(C)C[C@@H]1NC(=O)[C@H](CCCNC(=N)N)NC(=O)[C@H](C(C)C)NC(=O)[C@@H]2CCCN2C(=O)[C@H](C(C)C)NC(=O)[C@@H](CCCNC(=N)NCc2ccc(CN)cc2)NC(=O)[C@H](CC(=O)O)NC(=O)[C@@H]2CCCN2C(=O)CN(C)C(=O)[C@H](Cc2ccc(-c3ccc(NC(=O)c4nn(CC(=O)O)c5ccccc45)cc3)cc2)NC(=O)[C@H](Cc2ccc(-c3ccccc3)cc2)NC(=O)[C@H](CN2CCOCC2)NC(=O)CSC[C@@H](C(=O)NCC(N)=O)NC1=O` [Example 501] ({CH2CO}-[Ala(morpholin-4-yl)][Bip][Bip(4'-NH)](Indazole3carbonyl(1-CH2COOH))[Sar]PD[X28]VPVRLCG-NH2; thioether N-13), for which the IC50 is 50 to 200 nM.

In turn, `CC[C@H](C)[C@@H]1NC(=O)[C@@H](CCCNC(=N)N)NC(=O)[C@H](CC(=O)O)NC(=O)[C@H](Cc2cnc[nH]2)NC(=O)CN(C)C(=O)[C@H](Cc2ccc(-c3ccc(NC(=O)c4cccc(CC(=O)OC)c4)cc3)cc2)NC(=O)[C@H](Cc2ccc(-c3ccccc3)cc2)NC(=O)[C@H](C(C)(C)C)NC(=O)CSC[C@@H](C(=O)NCC(N)=O)NC(=O)[C@H](CC(C)C)NC(=O)[C@H](Cc2c[nH]cn2)NC(=O)[C@H](C(C)C)NC(=O)[C@@H]2CCCN2C1=O` [Example 502] ({CH2CO}-[Tle][Bip][Bip(4'-NH)](X62)[Sar]HD[dR]IPVHLCG-NH2; thioether N-13) yielded an IC50 of less than 50 nM. For the molecule `CC[C@H](C)[C@@H]1NC(=O)[C@@H](CCCNC(=N)N)NC(=O)[C@H](CC(=O)O)NC(=O)[C@H](Cc2cnc[nH]2)NC(=O)CN(C)C(=O)[C@H](Cc2ccc(-c3ccc(NC(=O)c4cccc(CC(=O)OC)c4)cc3)cc2)NC(=O)[C@H](Cc2ccc(-c3ccc(C(=O)O)cc3)cc2)NC(=O)[C@H](CC2CCCCC2)NC(=O)CSC[C@@H](C(=O)NCC(N)=O)NC(=O)[C@H](CC(C)C)NC(=O)[C@H](Cc2c[nH]cn2)NC(=O)[C@H](C(C)C)NC(=O)[C@@H]2CCCN2C1=O` [Example 503] ({CH2CO}-[Cha][Bip(4'-COOH)][Bip(4'-NH)](X62)[Sar]HD[dR]IPVHLCG-NH2; thioether N-13), the IC50 was less than 50 nM.

Staying with this assay, now noted: HEK-Blue-CD40L cells, NF-kB-driven secreted alkaline phosphatase reporter; TNFα 0.5 ng/ml; 18 h; read-out: TNF induced HEK-Blue assay IC50 value.
Regarding `CC(C)C[C@@H]1NC(=O)[C@H](Cc2cnc[nH]2)NC(=O)[C@H](C(C)C)NC(=O)[C@@H]2CCCN2C(=O)[C@H](C(C)C)NC(=O)[C@@H](CCCNC(=N)N)NC(=O)[C@H](CC(=O)O)NC(=O)[C@H](Cc2cnc[nH]2)NC(=O)CN(C)C(=O)[C@H](Cc2ccc(-c3ccc(NC(=O)c4ccc(OCC(=O)O)cc4)cc3)cc2)NC(=O)[C@H](Cc2ccc(-c3ccccc3)cc2)NC(=O)[C@H](CC2CCCCC2)NC(=O)CSC[C@@H](C(=O)NCC(N)=O)NC1=O` [Example 489] ({CH2CO}-[Cha][Bip][Bip(4'-NH)](Benzoyl(4-OCH2COOH))[Sar]HD[dR]VPVHLCG-NH2; thioether N-13), the IC50 was less than 50 nM. In the case of `CC(C)C[C@@H]1NC(=O)[C@H](Cc2cnc[nH]2)NC(=O)[C@H](C(C)C)NC(=O)[C@@H]2CCCN2C(=O)[C@H](C(C)C)NC(=O)[C@@H](CCCNC(=N)N)NC(=O)[C@H](CC(=O)O)NC(=O)[C@H](Cc2ccccc2)NC(=O)CN(C)C(=O)[C@H](Cc2ccc(-c3ccc(NC(=O)c4ccc(OCC(=O)O)cc4)cc3)cc2)NC(=O)[C@H](Cc2ccc(-c3ccccc3)cc2)NC(=O)[C@H](CN2CCOCC2)NC(=O)CSC[C@@H](C(=O)NCC(N)=O)NC1=O` [Example 492] ({CH2CO}-[Ala(morpholin-4-yl)][Bip][Bip(4'-NH)](Benzoyl(4-OCH2COOH))[Sar]FD[dR]VPVHLCG-NH2; thioether N-13), the half-maximal inhibitory concentration (IC50) is less than 50 nM. With `CC(C)C[C@@H]1NC(=O)[C@H](Cc2cnc[nH]2)NC(=O)[C@H](C(C)C)NC(=O)[C@@H]2CCCN2C(=O)[C@H](C(C)C)NC(=O)[C@@H](CCCNC(=N)N)NC(=O)[C@H](CC(=O)O)NC(=O)[C@@H]2CCCN2C(=O)CN(C)C(=O)[C@H](Cc2ccc(-c3ccc(NC(=O)c4ccc(OCC(=O)O)cc4)cc3)cc2)NC(=O)[C@H](Cc2ccc(-c3ccccc3)cc2)NC(=O)[C@H](CC2CCCCC2)NC(=O)CSC[C@@H](C(=O)NCC(N)=O)NC1=O` [Example 493] ({CH2CO}-[Cha][Bip][Bip(4'-NH)](Benzoyl(4-OCH2COOH))[Sar]PD[dR]VPVHLCG-NH2; thioether N-13), the IC50 was 50 to 200 nM. With `CC(C)C[C@@H]1NC(=O)[C@H](Cc2cnc[nH]2)NC(=O)[C@H](C(C)C)NC(=O)[C@@H]2CCCN2C(=O)[C@H](C(C)C)NC(=O)[C@@H](CCCNC(=N)N)NC(=O)[C@H](CC(=O)O)NC(=O)[C@H](Cc2ccccn2)NC(=O)CN(C)C(=O)[C@H](Cc2ccc(-c3ccc(NC(=O)c4ccc(OCC(=O)O)cc4)cc3)cc2)NC(=O)[C@H](Cc2ccc(-c3ccccc3)cc2)NC(=O)[C@H](CN2CCOCC2)NC(=O)CSC[C@@H](C(=O)NCC(N)=O)NC1=O` [Example 494] ({CH2CO}-[Ala(morpholin-4-yl)][Bip][Bip(4'-NH)](Benzoyl(4-OCH2COOH))[Sar][2Pal]D[dR]VPVHLCG-NH2; thioether N-13), the IC50 is less than 50 nM. Turning to `CC(C)C[C@@H]1NC(=O)[C@H](Cc2cnc[nH]2)NC(=O)[C@H](C(C)C)NC(=O)[C@@H]2CCCN2C(=O)[C@H](C(C)C)NC(=O)[C@@H](CCCNC(=N)N)NC(=O)[C@H](CC(=O)O)NC(=O)[C@H](Cc2cnc[nH]2)NC(=O)CN(C)C(=O)[C@H](Cc2ccc(-c3ccc(NC(=O)c4ccc(OCC(=O)O)cc4)cc3)cc2)NC(=O)[C@H](Cc2ccc(-c3ccccc3)cc2)NC(=O)[C@H](CN2CCOCC2)NC(=O)CSC[C@@H](C(=O)NCC(N)=O)NC1=O` [Example 495] ({CH2CO}-[Ala(morpholin-4-yl)][Bip][Bip(4'-NH)](Benzoyl(4-OCH2COOH))[Sar]HD[dR]VPVHLCG-NH2; thioether N-13), the IC50 is less than 50 nM. Same read-out and setting: the value for `CC[C@H](C)[C@@H]1NC(=O)[C@@H](CCCNC(=N)N)NC(=O)[C@H](CC(=O)O)NC(=O)[C@H](Cc2cnc[nH]2)NC(=O)CN(C)C(=O)[C@H](Cc2ccc(-c3ccc(NC(=O)c4cccc(CC(=O)O)c4)cc3)cc2)NC(=O)[C@H](Cc2ccc(-c3ccccc3)cc2)NC(=O)[C@H](C(C)(C)C)NC(=O)CSC[C@@H](C(=O)NCC(N)=O)NC(=O)[C@H](CC(C)C)NC(=O)[C@H](Cc2cnc[nH]2)NC(=O)[C@H](C(C)C)NC(=O)[C@@H]2CCCN2C1=O` [Example 496] ({CH2CO}-[Tle][Bip][Bip(4'-NHCO-C6H4-3-CH2COOH)][Sar]HD[dR]IPVHLCG-NH2; thioether N-13) was less than 50 nM. In the case of `CC[C@H](C)[C@@H]1NC(=O)[C@@H](CCCNC(=N)NCc2cccc(CO)c2)NC(=O)[C@H](CC(=O)O)NC(=O)[C@H](Cc2cnc[nH]2)NC(=O)CN(C)C(=O)[C@H](Cc2ccc(-c3ccc(NC(=O)c4cccc(OCC(=O)O)c4)cc3)cc2)NC(=O)[C@H](Cc2ccc(-c3ccccc3)cc2)NC(=O)[C@H](CC2CCCCC2)NC(=O)CSC[C@@H](C(=O)NCC(N)=O)NC(=O)[C@H](CC(C)C)NC(=O)[C@H](Cc2cnc[nH]2)NC(=O)[C@H](C(C)C)NC(=O)[C@@H]2CCCN2C1=O` [Example 498] ({CH2CO}-[Cha][Bip][Bip(4'-NH)](Benzoyl(3-OCH2COOH))[Sar]HD[dArg(ω-Bn(3-CH2OH))]IPVHLCG-NH2; thioether N-13), the IC50 is 50 to 200 nM.

Turning to `CC[C@H](C)[C@@H]1NC(=O)[C@@H](CCCNC(=N)NCc2ccc3occc3c2)NC(=O)[C@H](CC(=O)O)NC(=O)[C@H](Cc2cnc[nH]2)NC(=O)CN(C)C(=O)[C@H](Cc2ccc(-c3ccc(NC(=O)c4cccc(OCC(=O)O)c4)cc3)cc2)NC(=O)[C@H](Cc2ccc(-c3ccccc3)cc2)NC(=O)[C@H](CC2CCCCC2)NC(=O)CSC[C@@H](C(=O)NCC(N)=O)NC(=O)[C@H](CC(C)C)NC(=O)[C@H](Cc2cnc[nH]2)NC(=O)[C@H](C(C)C)NC(=O)[C@@H]2CCCN2C1=O` [Example 499] ({CH2CO}-[Cha][Bip][Bip(4'-NH)](Benzoyl(3-OCH2COOH))[Sar]HD[X7]IPVHLCG-NH2; thioether N-13), the IC50 is less than 50 nM. Regarding `CC(C)C[C@@H]1NC(=O)[C@H](CCCNC(=N)N)NC(=O)[C@H](C(C)C)NC(=O)[C@@H]2CCCN2C(=O)[C@H](C(C)C)NC(=O)[C@@H](CCCNC(=N)NCc2cccc(CO)c2)NC(=O)[C@H](CC(=O)O)NC(=O)[C@@H]2CCCN2C(=O)CN(C)C(=O)[C@H](Cc2ccc(-c3ccc(NC(=O)c4ccc(OCC(=O)O)cc4)cc3)cc2)NC(=O)[C@H](Cc2ccc(-c3ccccc3)cc2)NC(=O)[C@H](CN2CCOCC2)NC(=O)CSC[C@@H](C(=O)NCC(N)=O)NC1=O` [Example 500] ({CH2CO}-[Ala(morpholin-4-yl)][Bip][Bip(4'-NH)](Benzoyl(4-OCH2COOH))[Sar]PD[dArg(ω-Bn(3-CH2OH))]VPVRLCG-NH2; thioether N-13), the IC50 was less than 50 nM.

Values taken from patent US20250145665A1, “MACROCYCLIC PEPTIDES USEFUL AS MODULATORS OF TNF ALPHA” (Bristol-Myers Squibb Company, priority 2023, published 2025).
